One block for each compound: values may come before it. The source made the active and inactive calls. The calls are words filed in the database; no cut-off is given here.
Columns and labels:
Homo sapiens = species on record: Homo sapiens; experiment: Inhibition of calcineurin phosphatase activity (unknown origin) assessed as R2 phosphopeptide dephosphorylation up to 10 uM after 30 mins by malachite green staining assay in presence of calmodulin and CypA
[1] = (§1) Cellular uptake in human Jurkat T cells assessed as displacemnet of [O-(2-acetamido)-D-serine]8-cyclosporine N-{(5-aminopentyl)-[2,3,6,7-tetrahydro-11-oxo-1H,5H,11Hbenzopyrano(6,7,8-ij)quinolizine-10-carboxyl amide] from intracellular compartments after 90 mins by flow cytometric analysis; type: ADME, cell-based; settings: 1.5 h
[2] = target: T1, Peptidyl-prolyl cis-trans isomerase A (Homo sapiens, UniProt P62937); experiment: Inhibition of CypA PPIase activity (unknown origin) using Glt-(Ala)n-Pro-Phe-4-nitroanilides as substrate
Target sequence in this assay (P62937 whole entry): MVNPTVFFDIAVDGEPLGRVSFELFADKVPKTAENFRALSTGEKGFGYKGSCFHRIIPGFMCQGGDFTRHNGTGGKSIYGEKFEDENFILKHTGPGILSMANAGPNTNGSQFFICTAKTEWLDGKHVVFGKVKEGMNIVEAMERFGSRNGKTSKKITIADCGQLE

[3] = Inhibition of calcineurin phosphatase activity (unknown origin) assessed as R2 phosphopeptide dephosphorylation after 30 mins by malachite green staining assay in presence of calmodulin and CypA
Mus musculus [4] = experiment: In vivo inhibition of extracellular cyclophilin-mediated neutrophil recruitment in peritoneal fluid in thioglycollate challenged CD147-deficient C57BL6 mouse peritonitis model at 20 mg/kg, ip administered 3 hrs before thioglycollate challenge measured after 18 hrs; type: functional, organism-based; set-up: dose 20 mg/kg
Mus musculus [5] = experiment: In vivo inhibition of extracellular cyclophilin-mediated monocytes recruitment in peritoneal fluid of thioglycollate challenged C57BL6 mouse peritonitis model at 20 mg/kg, ip administered 3 hrs before thioglycollate challenge measured after 18 hrs; type: functional, organism-based; set-up: dose 20 mg/kg
[6] = target: T1, Peptidyl-prolyl cis-trans isomerase A; settings: 1 uM
Target sequence in this assay (P62937 whole entry, looked up): as the sequence (P62937 whole entry) above
Description: Inhibition of recombinant human CypA-mediated CD147-deficient leukocyte migration from mouse bone marrow at 1 uM after 2 hrs

Mus musculus [7] = experiment: In vivo inhibition of extracellular cyclophilin-mediated CD11b+ myeloid cells infiltration into TNCB challenged ear in CD147-deficient C57BL6 mouse allergic contact hypersensitivity model at 4 mg/kg, ip bid administered on day 4 to 6 prior to TNCB challenge by immunohistochemical analysis; type: functional, organism-based; set-up: dose 4 mg/kg
Mus musculus [8] = experiment: In vivo inhibition of extracellular cyclophilin-mediated MMP-9 secretion in peritoneal fluid in thioglycollate challenged C57BL6 mouse peritonitis model at 20 mg/kg, ip administered for 3 hrs before thioglycollate challenge by gelatin zymographic analysis; type: functional, organism-based; set-up: dose 20 mg/kg
Mus musculus [9] = experiment: In vivo inhibition of extracellular cyclophilin-mediated CD11b+ myeloid cells infiltration into TNCB challenged ear in C57BL6 mouse allergic contact hypersensitivity model at 4 mg/kg, ip bid administered on day 4 to 6 prior to TNCB challenge by immunohistochemical analysis; type: functional, organism-based; set-up: dose 4 mg/kg
Leukocyte [10] = experiment: Effect on FCS-induced CD147-deficient mouse leukocytes migration from bone marrow; type: functional
Mus musculus [11] = experiment: In vivo inhibition of extracellular cyclophilin-mediated IL-6 secretion in peritoneal fluid in thioglycollate challenged C57BL6 mouse peritonitis model at 20 mg/kg, ip administered for 3 hrs before thioglycollate challenge by ELISA; type: functional, organism-based; set-up: dose 20 mg/kg
[12] = target: T1, Peptidyl-prolyl cis-trans isomerase A; settings: 1 uM; remark: listed apart in the source
Target sequence in this assay (P62937 whole entry, looked up): as the sequence (P62937 whole entry) above
Description: Inhibition of recombinant human CypA-mediated leukocyte migration from mouse bone marrow at 1 uM after 2 hrs

[13] = as §1, with “compartments at 50 fold excess” for “compartments”; type: ADME, cell-based; settings: 1.5 h
[14] = target: T1, Peptidyl-prolyl cis-trans isomerase A; settings: Spleen, T-cell, 1 uM
Target sequence in this assay (P62937 whole entry, looked up): as the sequence (P62937 whole entry) above
Description: Inhibition of recombinant human CypA-mediated PMA/ionomycin-induced CD3+ T cell migration from mouse spleen at 1 uM after 2 hrs

Mus musculus [15] = experiment: In vivo inhibition of extracellular cyclophilin-mediated monocytes recruitment in peritoneal fluid in thioglycollate challenged CD147-deficient C57BL6 mouse peritonitis model at 20 mg/kg, ip administered 3 hrs before thioglycollate challenge measured after 18 hrs; type: functional, organism-based; set-up: dose 20 mg/kg
[16] = target: T1, Peptidyl-prolyl cis-trans isomerase A; settings: HeLa, 2 uM
Target sequence in this assay (P62937 whole entry, looked up): as the sequence (P62937 whole entry) above
Description: Inhibition of CypA-mediated ERK phosphorylation in serum-starved human HeLa cells at 2 uM after 5 mins by Western blotting analysis

[17] = target: Peptidyl-prolyl cis-trans isomerase C (Homo sapiens, UniProt P45877); experiment: Inhibition of CypC PPIase activity (unknown origin)
Chain of Peptidyl-prolyl cis-trans isomerase C (P45877 whole entry): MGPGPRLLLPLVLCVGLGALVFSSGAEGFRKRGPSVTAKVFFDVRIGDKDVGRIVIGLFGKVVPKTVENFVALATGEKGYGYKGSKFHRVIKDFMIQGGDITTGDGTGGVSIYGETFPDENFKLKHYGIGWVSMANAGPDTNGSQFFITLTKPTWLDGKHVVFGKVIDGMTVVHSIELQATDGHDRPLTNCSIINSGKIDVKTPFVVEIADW

Mus musculus [18] = experiment: In vivo inhibition of extracellular cyclophilin-mediated CD3+ T cells infiltration into TNCB challenged ear in C57BL6 mouse allergic contact hypersensitivity model at 4 mg/kg, ip bid administered on day 4 to 6 prior to TNCB challenge by immunohistochemical analysis; type: functional, organism-based; set-up: dose 4 mg/kg; settings: T-cell
Leukocyte [19] = experiment: Effect on fmlp-induced wild type mouse leukocytes migration from bone marrow; type: functional
Mus musculus [20] = experiment: In vivo inhibition of extracellular cyclophilin-mediated CD3+ T cells infiltration into TNCB challenged ear in CD147-deficient C57BL6 mouse allergic contact hypersensitivity model at 4 mg/kg, ip bid administered on day 4 to 6 prior to TNCB challenge by immunohistochemical analysis; type: functional, organism-based; set-up: dose 4 mg/kg; settings: T-cell
Mus musculus [21] = experiment: In vivo inhibition of extracellular cyclophilin-mediated neutrophils recruitment in peritoneal fluid of thioglycollate challenged C57BL6 mouse peritonitis model at 20 mg/kg, ip administered 3 hrs before thioglycollate challenge measured after 18 hrs; type: functional, organism-based; set-up: dose 20 mg/kg
Mus musculus [22] = experiment: In vivo inhibition of extracellular cyclophilin-mediated ear swelling in TNCB challenged C57BL6 mouse allergic contact hypersensitivity model at 4 mg/kg, ip bid administered on day 4 to 6 measured after 24 hrs; type: functional, organism-based; set-up: dose 4 mg/kg
[23] = target: T1, Peptidyl-prolyl cis-trans isomerase A; settings: myeloid, 1 uM
Target sequence in this assay (P62937 whole entry, looked up): as the sequence (P62937 whole entry) above
Description: Inhibition of recombinant human CypA-mediated CD11b+ myeloid cell migration from mouse bone marrow at 1 uM after 2 hrs

Leukocyte [24] = experiment: Effect on FCS-induced wild type mouse leukocytes migration from bone marrow; type: functional
Leukocyte [25] = experiment: Effect on fmlp-induced CD147-deficient mouse leukocytes migration from bone marrow; type: functional
Mus musculus [26] = experiment: In vivo inhibition of extracellular cyclophilin-mediated ear swelling in CD147-deficient TNCB challenged C57BL6 mouse at 4 mg/kg, ip bid administered on day 4 to 6; type: functional, organism-based; set-up: dose 4 mg/kg

Ki [2]: 43.9 nM | Drug uptake [1]: Active | IC50 [3]: > 10000 nM
SMILES: CC[C@@H]1NC(=O)[C@H]([C@H](O)[C@H](C)Cc2nc3ccc(C(C)C)cc3[nH]2)N(C)C(=O)[C@H](C(C)C)N(C)C(=O)[C@H](CC(C)C)N(C)C(=O)[C@H](CC(C)C)N(C)C(=O)[C@@H](C)NC(=O)[C@H](C)NC(=O)[C@H](CC(C)C)N(C)C(=O)[C@H](C(C)C)NC(=O)[C@H](CC(C)C)N(C)C(=O)CN(C)C1=O

Ki [2]: 12.4 nM | Drug uptake [1]: Active | IC50 [3]: 3400 nM
SMILES: CC[C@@H]1NC(=O)[C@H]([C@H](O)[C@H](C)Cc2nc3ccc(C)cc3[nH]2)N(C)C(=O)[C@H](C(C)C)N(C)C(=O)[C@H](CC(C)C)N(C)C(=O)[C@H](CC(C)C)N(C)C(=O)[C@@H](C)NC(=O)[C@H](C)NC(=O)[C@H](CC(C)C)N(C)C(=O)[C@H](C(C)C)NC(=O)[C@H](CC(C)C)N(C)C(=O)CN(C)C1=O

Drug uptake [1]: Active | IC50 [3]: 1200 nM
SMILES: CC[C@@H]1NC(=O)[C@H]([C@H](O)[C@H](C)Cc2nc3ccccc3[nH]2)N(C)C(=O)[C@H](C(C)C)N(C)C(=O)[C@H](CC(C)C)N(C)C(=O)[C@H](CC(C)C)N(C)C(=O)[C@@H](C)NC(=O)[C@H](C)NC(=O)[C@H](CC(C)C)N(C)C(=O)[C@H](C(C)C)NC(=O)[C@H](CC(C)C)N(C)C(=O)CN(C)C1=O

Drug uptake [1]: Active | IC50 [3]: 4600 nM
SMILES: CC[C@@H]1NC(=O)[C@H]([C@H](O)[C@H](C)Cc2nc3ccccc3c(=O)[nH]2)N(C)C(=O)[C@H](C(C)C)N(C)C(=O)[C@H](CC(C)C)N(C)C(=O)[C@H](CC(C)C)N(C)C(=O)[C@@H](C)NC(=O)[C@H](C)NC(=O)[C@H](CC(C)C)N(C)C(=O)[C@H](C(C)C)NC(=O)[C@H](CC(C)C)N(C)C(=O)CN(C)C1=O

More lines, now with the values behind:

SMILES: CC[C@@H]1NC(=O)[C@H]([C@H](O)[C@H](C)CC2=Nc3ccccc3CN2)N(C)C(=O)[C@H](C(C)C)N(C)C(=O)[C@H](CC(C)C)N(C)C(=O)[C@H](CC(C)C)N(C)C(=O)[C@@H](C)NC(=O)[C@H](C)NC(=O)[C@H](CC(C)C)N(C)C(=O)[C@H](C(C)C)NC(=O)[C@H](CC(C)C)N(C)C(=O)CN(C)C1=O
inhibition (Homo sapiens): inactive | Drug uptake [1]: Active

SMILES: CC[C@@H]1NC(=O)[C@H]([C@H](O)[C@H](C)Cc2nc3ccc(C(=O)O)cc3[nH]2)N(C)C(=O)[C@H](C(C)C)N(C)C(=O)[C@H](CC(C)C)N(C)C(=O)[C@H](CC(C)C)N(C)C(=O)[C@@H](C)NC(=O)[C@H](C)NC(=O)[C@H](CC(C)C)N(C)C(=O)[C@H](C(C)C)NC(=O)[C@H](CC(C)C)N(C)C(=O)CN(C)C1=O
inhibition (Homo sapiens): inactive | inhibition (Mus musculus [4]): inactive | inhibition (Mus musculus [5]): Active | inhibition [6]: inactive | inhibition (Mus musculus [7]): inactive | inhibition (Mus musculus [8]): Active | inhibition (Mus musculus [9]): Active | Activity (Leukocyte [10]): inactive | inhibition (Mus musculus [11]): Active | inhibition [12]: Active | Drug uptake [13]: Not Active | inhibition [14]: Active | Ki [2]: 10.7 nM | inhibition (Mus musculus [15]): inactive | inhibition [16]: Active | Ki [17]: 118 nM | inhibition (Mus musculus [18]): Active | Activity (Leukocyte [19]): inactive | inhibition (Mus musculus [20]): inactive | inhibition (Mus musculus [21]): Active | inhibition (Mus musculus [22]): Active | inhibition [23]: Active | Activity (Leukocyte [24]): inactive | Activity (Leukocyte [25]): inactive | inhibition (Mus musculus [26]): inactive

SMILES: CC[C@@H]1NC(=O)[C@H]([C@H](O)[C@H](C)Cc2nc3ccccc3s2)N(C)C(=O)[C@H](C(C)C)N(C)C(=O)[C@H](CC(C)C)N(C)C(=O)[C@H](CC(C)C)N(C)C(=O)[C@@H](C)NC(=O)[C@H](C)NC(=O)[C@H](CC(C)C)N(C)C(=O)[C@H](C(C)C)NC(=O)[C@H](CC(C)C)N(C)C(=O)CN(C)C1=O
Ki [2]: 36.6 nM | Drug uptake [1]: Active | IC50 [3]: 4500 nM

SMILES: CC[C@@H]1NC(=O)[C@H]([C@H](O)[C@H](C)Cc2nc3ccc(C(=O)OC)cc3[nH]2)N(C)C(=O)[C@H](C(C)C)N(C)C(=O)[C@H](CC(C)C)N(C)C(=O)[C@H](CC(C)C)N(C)C(=O)[C@@H](C)NC(=O)[C@H](C)NC(=O)[C@H](CC(C)C)N(C)C(=O)[C@H](C(C)C)NC(=O)[C@H](CC(C)C)N(C)C(=O)CN(C)C1=O
Ki [2]: 11.8 nM | Drug uptake [1]: Active | IC50 [3]: 6900 nM

— ChEMBL document CHEMBL2424541, “Anti-inflammatory effects of extracellular cyclosporins are exclusively mediated by CD147” (J Med Chem, 2013)
